Patent publication US20190352341A1, “MODIFIED PEPTIDES AND THEIR USE FOR TREATING SYSTEMIC LUPUS ERYTHEMATOSUS” (IMMUPHARMA FRANCE SA, priority 2018, published 2019)
Square brackets hold non-standard residues; d marks the D form. Peptide text beside a SMILES is read from it. Met(O) = CS(=O)CC[C@H](N)C(=O)O; pS = N[C@@H](COP(=O)(O)O)C(=O)O

Experiments:
[1] = tested on: MRL/lpr mice; experiment: Cellularity analysis (peripheral blood) in MRL/lpr mice; assay type: in vivo, mouse; settings: 100 μg/100 μL, 5 days after unique injection
Procedure: MRL/lpr mice were injected with 100 μg/100 μL of P140 or P140(MO) and cellularity (peripheral blood) was studied 5 days after this unique injection. The count includes all the leucocytes. In view of the low number of tested mice, a non parametric statistical test has been realised Mann-Whitney).

[2] = tested on: MRL/lpr mice; experiment: Survival analysis in MRL/lpr mice; assay type: in vivo, mouse; settings: female MRL/lpr mice, peptide intravenously from five weeks of age; NaCl control 25 weeks
Procedure: It has been determined that this mouse strain carries a mutation in the fas gene. Also, the MRL/lpr is a useful model to study behavioural and cognitive deficits found in autoimmune diseases and the efficacy of immunosuppressive agents [Monneaux et al., 2003, Eur. J. Immunol. 33, 287-296].
Five-week-old female MRL/lpr mice received P140 or peptide P140(MO) intravenously as described (Monneaux et al., 2003, Eur. J. Immunol. 33, 287-296). All experimental protocols were carried out with the approval of the local Institutional Animal Care and Use Committee (CREMEAS). As control, mice were injected with NaCl.
Twenty mice were used for each peptide or NaCl.
(§1) Statistical tests were performed using GraphPad Prism version 5.0. The two-way ANOVA test was used to analyze statistical significance of proteinuria differences between control and peptide-treated groups of mice. Survival of control and P140 analogue-treated female MRL/lpr mice was analyzed by the Kaplan-Meier method, and the significance of differences was determined by the log-rank test. For the other variables, statistical significance was assessed using the Student's t-test. p values less than 0.05 were considered significant.

[3] = tested on: MRL/lpr mice; experiment: Proteinuria analysis in MRL/lpr mice; assay type: in vivo, mouse; settings: Albustix score, compared to the untreated mice
Procedure: Proteinuria of the above mice was measured in fresh urine using Albustix (Bayer Diagnostics) and was semi-quantitatively estimated according to a […] recommended by the manufacturer (no proteinuria=0; traces=1; 1+=2; 2+=3; 3+=4; 4+=5).
as §1

[4] = Stability of the peptides at 37° C. (HPLC peak area); assay type: physicochemical; settings: for 95% of stability (predicted): time to 95% from linear equation; for Stability (%) Linear equation: slope: y = stability %, x = days; for Stability (%): 10% mannitol
Procedure: The stability of the peptide SEQ ID NO: 1 in which the serine at position 10 is phosphorylated and the methionine at position 4 is oxydized (P140(MO)), and the peptide SEQ ID NO: 1 in which the serine at position 10 is phosphorylated (P140) was measured at 37° C., in a solution of 10% (v/v) mannitol. For each peptide, 3 concentrations have been tested: 200, 100 and 50 μg/mL.
At the indicated time, the integrity of P140 and P140(MO) peptides was measured in saline by high-performance liquid chromatography from the area of the peak corresponding to the intact peptide.
Stability is measured by using the HPLC peak surface.

[5] = target: T1, HSC70 protein (Bos taurus, UniProt P19120); experiment: Affinity of the peptides for HSC70 protein (BIAcore); assay type: binding, bovine
T1 construct: purchased Stressgen
Procedure: BIAcore 3000 system (Biacore AB) was used to evaluate the binding of P140 peptides to HSC70 protein (Page et al., 2009, and 2011). Sensor chip CMS, surfactant P20, amine coupling kit containing N-hydroxysuccinimide (NHS) and N-ethyl-N′-dimethylaminopropyl carbodiimide (EDC), 2-(2-pyridinyldithio)ethaneamine (PDEA) and ethanolamine were from Biacore AB. Biosensor assays were performed with HBS-EP buffer as running buffer (10 mM HEPES, 150 mM NaCl, 3 mM EDTA, 0.005% surfactant P20, pH 7.4). The compounds were diluted in the running buffer. The sensor chip surface was regenerated after each experiment by injecting 10 μL of 10 mM HCl. Recombinant bovine HSC70 (Stressgen) was immobilized on flow cells of a CM5 sensor chip through its thiol groups using 35 μL PDEA in 50 mM borate buffer, pH 8.3 on the NHS/EDC-activated matrix. Then, 35 μL of HSC70 (100 μg/mL in formate buffer, pH 4.3) were injected until a response of 13,000 response units (RU) corresponding to 13 ng/mm^2 of HSC70 was immobilized. Twenty μL of a 50 mM cysteine/1 M NaCl solution was used to saturate unoccupied sites on the chip. The direct binding measurement of P140 peptides to HSC70 was carried out at 25° C. with a constant flow rate of 20 μL/min. P140 peptide and analogues were injected in the flux at different concentrations for 3 min, followed by a dissociation phase of 3 min. The kinetic parameters were calculated using the BIAeval 3.1 software on a personal computer. Analysis was performed using the simple 1:1 Langmuir binding model. The specific binding profiles were obtained after subtracting the response signal from the control empty channel and from blank-buffer injection. The fitting to each model was judged by the χ^2 value and randomness of residue distribution compared to the theoretical model.

[6] = BIAcore, 25° C., 1:1 Langmuir model, global fit

T1 sequence (P19120 whole entry): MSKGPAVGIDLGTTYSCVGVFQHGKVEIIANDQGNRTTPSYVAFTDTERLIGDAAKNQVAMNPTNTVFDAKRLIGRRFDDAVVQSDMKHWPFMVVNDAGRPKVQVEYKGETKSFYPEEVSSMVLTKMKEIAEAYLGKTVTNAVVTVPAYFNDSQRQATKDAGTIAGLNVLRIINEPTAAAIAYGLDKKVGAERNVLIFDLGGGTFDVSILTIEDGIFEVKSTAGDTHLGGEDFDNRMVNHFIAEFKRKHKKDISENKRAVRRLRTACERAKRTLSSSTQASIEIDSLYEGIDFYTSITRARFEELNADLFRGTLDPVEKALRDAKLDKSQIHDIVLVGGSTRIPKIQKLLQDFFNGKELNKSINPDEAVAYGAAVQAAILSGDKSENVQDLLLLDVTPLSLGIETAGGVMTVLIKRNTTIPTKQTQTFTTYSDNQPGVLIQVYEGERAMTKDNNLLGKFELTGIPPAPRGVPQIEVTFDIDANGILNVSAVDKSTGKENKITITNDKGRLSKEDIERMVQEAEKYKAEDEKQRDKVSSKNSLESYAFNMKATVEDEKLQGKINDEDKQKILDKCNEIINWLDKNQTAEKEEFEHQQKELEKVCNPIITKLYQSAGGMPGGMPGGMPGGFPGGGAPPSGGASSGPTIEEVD

In the case of CC[C@H](C)[C@H](NC(=O)[C@H](Cc1ccccc1)NC(=O)[C@H](C)NC(=O)[C@H](Cc1ccc(O)cc1)NC(=O)CNC(=O)[C@H](CCCNC(=N)N)NC(=O)[C@@H]1CCCN1C(=O)[C@H](CCCCN)NC(=O)CNC(=O)[C@H](COP(=O)(O)O)NC(=O)[C@H](CCCNC(=N)N)NC(=O)[C@H](CCCCN)NC(=O)[C@H](CO)NC(=O)[C@H](Cc1ccc(O)cc1)NC(=O)[C@@H](NC(=O)[C@H](CC[S+](C)[O-])NC(=O)[C@H](Cc1c[nH]cn1)NC(=O)[C@@H](NC(=O)[C@@H](N)CCCNC(=N)N)[C@@H](C)CC)C(C)C)C(=O)N[C@@H](CCC(=O)O)C(=O)N[C@@H](Cc1ccc(O)cc1)C(=O)O (stereo partly shown) [P140(MO), RIHM(O)VYSKRS(PO3H2)GKPRGYAFIEY] (H-RIH[Met(O)]VYSKR[pS]GKPRGYAFIEY-OH), the “Peripheral hypercellularity (leucocytes in peripheral blood)” value [1] is reported as “decrease peripheral hypercellularity”, the “Median survival of mice” value [2] is reported as greater than 40 weeks and the Proteinuria [3] is reported as “less important and appears lately”. For the same compound, the “Stability (%) Linear equation: intercept” value ([4]; 50 μg/mL) was 99.677, the “95% of stability (predicted)” value ([4]; 50 μg/mL) was 2 years and the “Stability (%) Linear equation: slope” value ([4]; 50 μg/mL) was “y = −0.0064x +”. The “Stability (%) Linear equation: intercept” value ([4]; 100 μg/mL) was 100.11, the “95% of stability (predicted)” value ([4]; 100 μg/mL) was 2 years + and the “Stability (%) Linear equation: slope” value ([4]; 100 μg/mL) was “y = −0.0064x +”. The “95% of stability (predicted)” value ([4]; 200 μg/mL) was “∞”, the “Stability (%)” value ([4]; 50 μg/mL, day 0) was 100% and the “Stability (%)” value ([4]; 50 μg/mL, day 20) was 100%. For the same compound, the “Stability (%)” value ([4]; 50 μg/mL, day 40) was 100%, the “Stability (%)” value ([4]; 50 μg/mL, day 100) was 99.4% and the “Stability (%)” value ([4]; 100 μg/mL, day 0) was 100%. The “Stability (%)” value ([4]; 100 μg/mL, day 20) was 99.1%, the “Stability (%)” value ([4]; 100 μg/mL, day 40) was 99.5% and the “Stability (%)” value ([4]; 100 μg/mL, day 100) was 99.1%. For the same compound, the “Stability (%)” value ([4]; 200 μg/mL, day 0) was 100%, the “Stability (%)” value ([4]; 200 μg/mL, day 20) was 100% and the “Stability (%)” value ([4]; 200 μg/mL, day 40) was 100%. The “Stability (%)” value ([4]; 200 μg/mL, day 100) was 100%, the Rmax ([5]; BIAcore, 25° C., 1:1 Langmuir model) was 39 RU and the KA [5, 6] was 524000 M⁻¹. For the same compound, the kd [5, 6] was 0.0022 s⁻¹, the RI ([5]; peptide 1.56 μM) was 14 RU and the Req ([5]; peptide 1.56 μM) was 17.6 RU. The kobs ([5]; peptide 1.56 μM) was 0.004 s⁻¹, the RI ([5]; peptide 3.12 μM) was 18.7 RU and the Req ([5]; peptide 3.12 μM) was 242 RU. It also gave a kobs ([5]; peptide 3.12 μM) of 0.0058 s⁻¹, an RI ([5]; peptide 6.25 μM) of 25.9 RU and a Req ([5]; peptide 6.25 μM) of 29.9 RU. For the same compound, the kobs ([5]; peptide 6.25 μM) was 0.0094 s⁻¹, the RI ([5]; peptide 12.5 μM) was 36.9 RU and the Req ([5]; peptide 12.5 μM) was 33.9 RU. It also gave a kobs ([5]; peptide 12.5 μM) of 0.0166 s⁻¹, an RI ([5]; peptide 25 μM) of 53.4 RU and a Req ([5]; peptide 25 μM) of 36.3 RU. For the same compound, the kobs ([5]; peptide 25 μM) was 0.031 s⁻¹.
